Columns and labels:
Assay in all cases: relative viability (nuclei count vs DMSO), 5 days (fraction); higher = more cells survive
VX-11e + Navitoclax = compound: CC1=CN=C(N=C1C2=CNC(=C2)C(=O)N[C@H](CO)C3=CC(=CC=C3)Cl)NC4=C(C=C(C=C4)F)Cl [VX-11e] + CC1(C)CCC(c2ccc(Cl)cc2)=C(CN2CCN(c3ccc(C(=O)NS(=O)(=O)c4ccc(N[C@H](CCN5CCOCC5)CSc5ccccc5)c(S(=O)(=O)C(F)(F)F)c4)cc3)CC2)C1 [Navitoclax] (partner 0.5 µM)
How it was run: (§1)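 Lung cancer cell lines were pin-tool dosed in 1536-well plates on the day after seeding, with either a lone drug or a fixed anchor-drug dose plus five library-drug doses (not always all listed) in √10 steps. Nuclei were counted on 4× images after 5 days. Relative viability is the ratio of treated-well to vehicle-well nuclei counts, with each value a median of duplicate plates.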

VX-11e + Pemetrexed = compound: CC1=CN=C(N=C1C2=CNC(=C2)C(=O)N[C@H](CO)C3=CC(=CC=C3)Cl)NC4=C(C=C(C=C4)F)Cl [VX-11e] + Nc1nc2[nH]cc(CCc3ccc(C(=O)N[C@@H](CCC(=O)O)C(=O)O)cc3)c2c(=O)[nH]1 [Pemetrexed] (partner 0.2 µM)
How it was run: as §1

VX-11e + Phenformin = compound: CC1=CN=C(N=C1C2=CNC(=C2)C(=O)N[C@H](CO)C3=CC(=CC=C3)Cl)NC4=C(C=C(C=C4)F)Cl [VX-11e] + N=C(N)NC(=N)NCCc1ccccc1 [Phenformin] (partner 250 µM)
How it was run: as §1

VX-11e + Trametinib = compound: CC1=CN=C(N=C1C2=CNC(=C2)C(=O)N[C@H](CO)C3=CC(=CC=C3)Cl)NC4=C(C=C(C=C4)F)Cl [VX-11e] + CC(=O)Nc1cccc(-n2c(=O)n(C3CC3)c(=O)c3c(Nc4ccc(I)cc4F)n(C)c(=O)c(C)c32)c1 [Trametinib] (partner 0.02 µM)
How it was run: as §1

Row | Cell Line | relative viability (VX-11e + Navitoclax; first compound 0.04 µM) | relative viability (VX-11e + Navitoclax; first compound 0.1265 µM) | relative viability (VX-11e + Navitoclax; first compound 0.4 µM) | relative viability (VX-11e + Navitoclax; first compound 1.265 µM) | relative viability (VX-11e + Navitoclax; first compound 4 µM) | relative viability (VX-11e + Pemetrexed; first compound 0.1265 µM) | relative viability (VX-11e + Pemetrexed; first compound 1.265 µM) | relative viability (VX-11e + Pemetrexed; first compound 4 µM) | relative viability (VX-11e + Phenformin; first compound 0.04 µM) | relative viability (VX-11e + Phenformin; first compound 0.1265 µM) | relative viability (VX-11e + Phenformin; first compound 0.4 µM) | relative viability (VX-11e + Phenformin; first compound 1.265 µM) | relative viability (VX-11e + Phenformin; first compound 4 µM) | relative viability (VX-11e + Trametinib; first compound 0.1265 µM) | relative viability (VX-11e + Trametinib; first compound 1.265 µM) | relative viability (VX-11e + Trametinib; first compound 4 µM) | relative viability (VX-11e + Pemetrexed; first compound 0.04 µM) | relative viability (VX-11e + Pemetrexed; first compound 0.4 µM) | relative viability (VX-11e + Trametinib; first compound 0.04 µM) | relative viability (VX-11e + Trametinib; first compound 0.4 µM)
1 | NCI-H1792 | 0.614 | 0.639 | 0.672 | 0.646 | 0.588 | 0.719 | 0.343 | 0.0593 | 0.151 | 0.386 | 0.137 | 0.0901 | 0.038 | 0.392 | 0.322 | 0.102 | – | – | – | –
2 | NCI-H2405 | 1.03 | 0.921 | – | 0.592 | 0.126 | 0.957 | 0.989 | 0.501 | 0.393 | 0.403 | 0.233 | 0.321 | 0.169 | 0.582 | 0.649 | 0.283 | 1.09 | 0.678 | 0.716 | 0.271
3 | NCI-H23 | 1 | 0.859 | 0.467 | 0.459 | 0.243 | 0.583 | 0.312 | 0.222 | 0.682 | 0.701 | – | 0.666 | 0.436 | 0.339 | 0.223 | 0.219 | 0.517 | 0.214 | 0.276 | 0.287
4 | LXF-289 | 0.99 | 0.914 | 0.965 | 0.895 | 0.607 | 0.911 | 0.803 | 0.706 | 0.578 | 0.5 | 0.16 | 0.463 | 0.365 | 0.652 | 0.626 | 0.498 | 0.974 | – | 0.729 | –
5 | NCI-H1437 | 1.11 | 1.05 | 1.07 | 0.815 | 0.52 | 0.274 | 0.257 | 0.219 | 0.334 | 0.257 | 0.226 | 0.297 | 0.225 | 0.472 | 0.358 | 0.305 | 0.331 | 0.296 | 0.539 | 0.574
6 | NCI-H661 | – | – | – | – | – | 0.912 | 0.88 | 0.756 | 0.242 | 0.324 | 0.275 | 0.293 | 0.27 | 0.542 | 0.506 | 0.376 | 0.814 | 0.901 | 0.568 | 0.476
7 | PC-3 [JPC-3] | 0.786 | 0.803 | 0.682 | 0.831 | 0.743 | 1.09 | 0.976 | 0.846 | 0.436 | 0.476 | 0.486 | 0.489 | 0.414 | 0.653 | 0.572 | 0.527 | 1.08 | 1.12 | 0.671 | 0.59
8 | PC-14 | 1.05 | 1.04 | 1.09 | 0.978 | 0.727 | 0.108 | 0.134 | 0.112 | 0.539 | 0.552 | 0.196 | 0.472 | 0.239 | 0.697 | 0.413 | 0.216 | 0.132 | 0.148 | 0.734 | 0.624
9 | NCI-H838 | 1.17 | 1.1 | 1.05 | 1.1 | 0.861 | 0.235 | 0.229 | 0.217 | 0.539 | 0.604 | 0.17 | 0.445 | 0.379 | 0.505 | 0.484 | 0.455 | 0.236 | 0.239 | 0.457 | 0.513
10 | 201T | 1.23 | 1.16 | 1.2 | 1.17 | 1.08 | 0.344 | 0.249 | 0.31 | 0.445 | 0.476 | 0.38 | 0.453 | 0.418 | 0.72 | 0.706 | 0.689 | 0.347 | 0.317 | 0.737 | 0.705
11 | SK-LU-1 | 1.06 | 0.817 | 0.508 | 0.634 | 0.168 | 0.981 | 0.596 | 0.301 | 0.474 | 0.492 | – | 0.356 | 0.156 | 0.332 | 0.25 | 0.274 | 1.01 | 0.975 | 0.427 | 0.179
12 | NCI-H650 | – | – | – | – | – | 0.903 | 1.05 | 1.11 | 0.496 | 0.441 | 0.491 | 0.442 | 0.446 | 0.958 | 0.64 | 0.381 | 0.997 | 0.984 | 1.04 | 0.994
13 | NCI-H1355 | 0.92 | 0.891 | 0.945 | 0.695 | 0.333 | 0.99 | 1.01 | 0.526 | 0.417 | 0.435 | 0.34 | 0.379 | 0.348 | 0.411 | 0.33 | 0.221 | 0.904 | 0.99 | 0.406 | 0.372
14 | Calu-6 | 0.994 | 0.786 | 0.737 | 0.219 | 0.109 | – | – | – | – | – | – | – | – | – | – | – | – | – | – | –
15 | NCI-H358 | – | – | – | – | – | 0.171 | 0.171 | 0.136 | 0.276 | 0.288 | 0.07 | 0.263 | 0.142 | 0.135 | 0.121 | 0.112 | 0.188 | 0.17 | 0.0982 | 0.0751
16 | NCI-H727 | 0.395 | 0.332 | 0.283 | 0.167 | 0.115 | – | – | – | 0.439 | 0.475 | 0.451 | 0.359 | 0.353 | 0.374 | 0.365 | 0.346 | – | – | 0.415 | 0.379
17 | NCI-H1299 | 1.02 | 1.01 | 1.02 | 0.976 | 0.692 | – | – | – | – | – | – | – | – | – | – | – | – | – | – | –
18 | LCLC-103H | – | – | – | – | – | 0.437 | 0.417 | 0.493 | 0.309 | 0.333 | 0.312 | 0.302 | 0.295 | 0.633 | 0.628 | 0.558 | 0.442 | 0.53 | 0.67 | 0.689
19 | NCI-H1703 | 1.12 | 1.21 | 1.24 | 1.29 | 0.744 | – | – | – | – | – | – | – | – | – | – | – | – | – | – | –
20 | ABC-1 | – | – | – | – | – | – | – | – | 0.205 | 0.277 | 0.224 | 0.243 | 0.281 | – | – | – | – | – | – | –
21 | IA-LM | 0.899 | 0.891 | 0.844 | 0.415 | 0.0436 | – | – | – | – | – | – | – | – | – | – | – | – | – | – | –
